US20160193148A1, “LIPOSOMAL FORMULATIONS FOR THE TREATMENT OF BACTERIAL INFECTIONS” (UNIVERSITY OF GEORGIA RESEARCH FOUNDATION, INC., priority 2013, published 2016)
Values joined by “and” are separate entries in the source; they are usually repeats but may differ in a detail not shown here. Identical values can stand only once. Marks after values point to notes of the source that are not given here.

Tests used:
[1] = BAL cell gentamicin concentrations after single IV or nebulized dose in foals; conditions: BAL cells
Procedure: (§1) Eight healthy 5-7-week-old Quarter Horse foals were randomly assigned to one of 4 groups using a balanced Latin-square design. Foals were considered healthy on the basis of physical examinations, complete blood cell counts and plasma biochemical profiles. […] The liposome gentamicin formulation was nebulized using Nortev FLEXINEB. For each treatment, gentamicin was administered over a period of 15 minutes. There was a washout period of 7-14 days between each treatment.
(§2) For the BAL collection, foals were sedated with xylazine and butorphanol. Concentrations of gentamicin were measured in plasma and in bronchoalveolar cells using HPLC-MS.
(§3) Eight foals received a single IV or nebulized dose (6.6 mg/kg bwt) of FG^h or LG in a balanced Latin square design. Beginning at 5-7 weeks of age, every foal received each of the 4 possible drug-route combinations with a 14-day washout period between each administration. Intravenous FG and LG were diluted in 250 ml of sterile 0.9% saline and administered via a jugular catheter as a constant rate infusion over 15 min. Nebulized FG and LG were administered by inhalation over 15 minutes via a commercial equine nebulizer. To ensure equivalent rate of delivery, FG was diluted to the same volume as LG with sterile 0.9% saline. Particle size of nebulized LG was verified using laser diffraction. Blood samples for plasma separation were obtained from a catheter placed in the contralateral jugular vein prior to each drug administration, and at 5, 10, 20, 30, 45 minutes and 1, 1.5, 2, 3, 4, 6, 8, 12, 16, 24 and 48 hours after the end of the 15 minute IV infusion or nebulization period. Bronchoalveolar lavage (BAL) fluid was collected at 2, 4, 8, 24, and 48 hours. Foals were sedated with xylazine hydrochloride (0.5 mg/kg bwt IV) and butorphanol tartrate (0.07 mg/kg bwt IV) prior to collection of BAL fluid. Prior to analysis for gentamicin concentration, blood samples were centrifuged at 400×g for 10 minutes and the resultant plasma frozen at −80° C. until assayed.
A 10 mm diameter, 2.4 m BAL catheter^k was passed via nasal approach until wedged into a bronchus. The lavage solution consisted of 4 aliquots of 60 ml 0.9% saline solution infused and instantly aspirated. Immediately upon collection, the total volume of BAL fluid recovered was measured and a 3 ml aliquot saved in an EDTA tube from which total nucleated cell count was determined by use of a cell counter.^1 BAL fluid was immediately centrifuged at 400×g for 10 min. The BAL cells in the resultant pellet were washed, re-suspended in 500 μl of acetonitrile: 0.2% formic acid (1:1, v/v), vortexed, and frozen at −80° C. until assayed. Supernatant BAL fluid was also frozen at −80° C. until assayed. Before assaying, the cell pellet samples were thawed, vortexed vigorously and sonicated for 10 minutes to ensure complete cell lysis. The resulting suspension was centrifuged at 500×g for 10 minutes and the supernatant fluid was used to determine the intracellular concentrations of gentamicin.
(§4) Briefly, gentamicin was extracted from plasma (250 μl) and urine (500 μl) using protein precipitation with an equal volume of ice-cold 90:10 acetonitrile: 0.2% formic acid (v/v). Extracted samples were centrifuged (2° C. at 10,000×g for 10 min) twice. Two-hundred microliters of the supernatants were transferred to polypropylene inserts for injection. The supernatant derived from the lyzed BAL cell pellet was transferred to polypropylene inserts for direct injection without further processing. […] An aliquot of the resultant supernatant was then mixed with an equal volume of ice-cold acetonitrile, centrifuged (2° C. at 10,000×g for 10 minutes) and 200 μl was transferred to polypropylene inserts for injection. Calibration standards were prepared in drug-free foal plasma, BAL fluid or urine and then extracted as described above so that standard curves specific to each biologic matrix could be constructed.

[2] = Plasma pharmacokinetics after single IV or nebulized dose in foals
Procedure: as §1, §2, §3
as §4, with “constructed. […] Analyte separation and LC-MS/MS measurement of gentamicin were performed exactly as described previously (Burton et al. (2013) Equine Vet J. 45, 507-511) except that BAL fluid samples, were introduced in the MS with a flow rate of 0.18 ml/minutes and a total run time of 8 minutes due to relatively low gentamicin concentration in those samples.” for “constructed.”
For each foal, plasma, PELF, and BAL cell concentration versus time data were analyzed using commercial software. Noncompartmental analysis was used for PELF and BAL cell data.

[3] = plasma, IV 6.6 mg/kg, 8 foals, Table 4
[4] = plasma, IV 6.6 mg/kg, 8 foals, listed as FG, 6.6 mg/kg

Substance: gentamicin sulfate [Free Gentamicin]
- AUC0-t ([1]; IV): 58.9 ± 41.5^a μg · h/ml
- C24 h ([1]; IV): 1500 ± 1230 ng/mL
- Tmax (median and range) ([1]; IV): 2 (2-8)^a h
- AUC0-24 ([1]; IV, Table 3): 58900 ± 41500 ng·h/mL
- C48 h ([1]; IV, Table 3): 0.5 ± 0.6 µg/mL
- Cmax ([1]; IV, Table 3): 3.0 ± 1.7 µg/mL
- C48 h ([1]; IV, Table 5): 0.47 ± 0.62^a μg/ml
- Cmax ([1]; IV, Table 5, listed as FG): 3.0±1.7 μg/ml and 2.98 ± 1.67^a μg/ml
- AUC0-24 ([1]; N (nebulized), Table 3): 37200 ± 18900 ng·h/mL
- C48 h ([1]; N (nebulized), Table 3): 0.3 ± 0.2 µg/mL
- Cmax ([1]; N (nebulized), Table 3): 1.5 ± 0.6 µg/mL
- AUC0-t ([1]; Neb): 37.2 ± 19.0^a μg · h/ml
- C24 h ([1]; Neb): 1010 ± 570 ng/mL
- Tmax (median and range) ([1]; Neb): 3 (2-48)^a h
- C48 h ([1]; Neb, Table 5): 0.32 ± 0.23^a μg/ml
- Cmax ([1]; Neb, Table 5, listed as FG): 1.5±0.6 μg/ml and 1.49 ± 0.57^a μg/ml
- Plasma concentrations after nebulized administration ([2]; nebulized 6.6 mg/kg, at most time points): 570 ng/mL
- A (intercept of the distribution phase) ([2]; plasma, IV 6.6 mg/kg, 8 foals): 53.24 ± 25.83 µg/mL
- AUC0-t ([2]; plasma, IV 6.6 mg/kg, 8 foals): 96700 ± 63800 ng·h/mL
- AUC0-∞ ([2]; plasma, IV 6.6 mg/kg, 8 foals): 98400 ± 64300 ng·h/mL
- AUMC0-∞ ([2]; plasma, IV 6.6 mg/kg, 8 foals): 360.2 ± 364.0 μg · h^2/ml
- B (intercept of the elimination phase) ([2]; plasma, IV 6.6 mg/kg, 8 foals): 2.50 ± 1.50 µg/mL
- CL ([2]; plasma, IV 6.6 mg/kg, 8 foals): 1.42 ± 0.615 mL/min/kg
- MRT ([2]; plasma, IV 6.6 mg/kg, 8 foals): 3.18 ± 1.25 h
- t1/2α (distribution half-life) ([2]; plasma, IV 6.6 mg/kg, 8 foals): 0.97 ± 0.45
- α (rate constant of the distribution phase) ([2]; plasma, IV 6.6 mg/kg, 8 foals): 0.82 ± 0.28 h⁻¹
- β (rate constant of the elimination phase) ([2]; plasma, IV 6.6 mg/kg, 8 foals): 0.12 ± 0.04 h⁻¹
- C0.5 h [2, 3]: 71780 ± 92140 ng/mL
- C48 h [2, 3]: 90 ± 90 ng/mL
- t1/2β ([2]; plasma, IV 6.6 mg/kg, 8 foals, Table 4, listed as FG, 6.6 mg/kg): 6.2 ± 1.8 h and 6.20 ± 1.77 h
- C1 h [2, 4]: 32600 ± 25280 ng/mL
- C24 h [2, 4]: 250 ± 190 ng/mL
- C0.5 h ([2]; plasma, IV 6.6 mg/kg, Table 1): 71800 ± 92100 ng/mL
- C48 h ([2]; plasma, IV 6.6 mg/kg, Table 1): 100 ± 90 ng/mL
- t1/2β ([2]; plasma, IV 6.6 mg/kg, Table 1, 6.6 mg/kg): 6.2 ± 1.8 h
- t1/2β ([2]; plasma, IV 6.6 mg/kg, Table 1, listed as free gentamicin, 6.6 mg/kg): 6.2 ± 1.8 h
